Results from ChEMBL document CHEMBL2321853, “Novel acylethanolamide derivatives that modulate body weight through enhancement of hypothalamic pro-opiomelanocortin (POMC) and/or decreased neuropeptide Y (NPY)” (J Med Chem, 2013).
Active and inactive are the calls of the source. The calls are words filed in the database; no cut-off is given here.

Assays:
[1] = biological target: T1, Transient receptor potential cation channel subfamily V member 1 (Homo sapiens, UniProt Q8NER1); experiment: Agonist activity at TRPV1 receptor (unknown origin)
T1 sequence (Q8NER1 whole entry): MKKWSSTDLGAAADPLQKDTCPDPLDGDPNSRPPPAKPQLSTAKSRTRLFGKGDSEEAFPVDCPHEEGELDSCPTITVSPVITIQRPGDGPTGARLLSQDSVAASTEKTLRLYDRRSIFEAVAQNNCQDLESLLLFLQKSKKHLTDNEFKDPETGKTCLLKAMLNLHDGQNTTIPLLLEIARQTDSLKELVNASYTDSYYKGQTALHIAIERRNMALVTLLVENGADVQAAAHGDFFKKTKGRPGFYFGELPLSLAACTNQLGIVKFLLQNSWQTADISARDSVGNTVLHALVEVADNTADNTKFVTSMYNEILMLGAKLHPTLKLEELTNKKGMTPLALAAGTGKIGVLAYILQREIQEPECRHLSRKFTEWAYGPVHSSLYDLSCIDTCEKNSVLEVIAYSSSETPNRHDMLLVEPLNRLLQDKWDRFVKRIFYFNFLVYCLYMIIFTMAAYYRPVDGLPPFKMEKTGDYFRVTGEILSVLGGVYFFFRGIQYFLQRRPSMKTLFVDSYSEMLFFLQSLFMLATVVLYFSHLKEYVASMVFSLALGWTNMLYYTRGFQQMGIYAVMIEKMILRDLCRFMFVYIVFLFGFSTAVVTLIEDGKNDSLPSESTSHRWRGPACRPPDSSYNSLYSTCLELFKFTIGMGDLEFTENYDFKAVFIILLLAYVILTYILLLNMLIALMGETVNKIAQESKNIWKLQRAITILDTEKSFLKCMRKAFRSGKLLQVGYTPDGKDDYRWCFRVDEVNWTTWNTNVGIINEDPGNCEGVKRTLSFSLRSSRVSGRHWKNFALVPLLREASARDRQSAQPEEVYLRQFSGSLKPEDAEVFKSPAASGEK

Mus musculus [2] = experiment: Antiobesity activity in Sabra mouse assessed as reduction in body weight at 1 mg/kg, ip administered on day 0, 10, 11, 12, 24, 29 measured on day 39 relative to control; format: functional; design: scale not given: the % may be the effect or the level left; conditions: route intraperitoneal
Mus musculus [3] = experiment: Antiobesity activity in Sabra mouse assessed as reduction in body weight at 1 mg/kg, ip administered on day 0, 10, 11, 12, 24, 29 measured on day 36 relative to control; format: functional; design: scale not given: the % may be the effect or the level left; conditions: route intraperitoneal
Mus musculus [4] = experiment: Antiobesity activity in Sabra mouse assessed as reduction in body weight at 1 mg/kg, ip administered on day 0, 10, 11, 12, 24, 29 measured on day 29 relative to control; format: functional; design: scale not given: the % may be the effect or the level left; conditions: route intraperitoneal
Mus musculus [5] = experiment: Antiobesity activity in Sabra mouse assessed as reduction in body weight at 1 mg/kg, ip administered on day 0, 10, 11, 12, 24, 29 measured on day 33 relative to control; format: functional; design: scale not given: the % may be the effect or the level left; conditions: route intraperitoneal
Mus musculus [6] = experiment: Antiobesity activity in Sabra mouse assessed as reduction in body weight at 1 mg/kg, ip administered on day 0, 10, 11, 12, 24, 29 measured on day 26 relative to control; format: functional; design: scale not given: the % may be the effect or the level left; conditions: route intraperitoneal
Mus musculus [7] = experiment: Antiobesity activity in Sabra mouse assessed as reduction in body weight at 1 mg/kg, ip administered on day 0, 10, 11, 12, 24, 29 measured on day 24 relative to control; format: functional; design: scale not given: the % may be the effect or the level left; conditions: route intraperitoneal
Mus musculus [8] = experiment: Antiobesity activity in Sabra mouse assessed as reduction in body weight at 1 mg/kg, ip administered on day 0, 10, 11, 12, 24, 29 measured on day 22 relative to control; format: functional; design: scale not given: the % may be the effect or the level left; conditions: route intraperitoneal
Mus musculus [9] = experiment: Antiobesity activity in Sabra mouse assessed as reduction in body weight at 1 mg/kg, ip administered on day 0, 10, 11, 12, 24, 29 measured on day 19 relative to control; format: functional; design: scale not given: the % may be the effect or the level left; conditions: route intraperitoneal
Mus musculus [10] = experiment: Antiobesity activity in Sabra mouse assessed as reduction in body weight at 1 mg/kg, ip administered on day 0, 10, 11, 12, 24, 29 measured on day 12 relative to control; format: functional; design: scale not given: the % may be the effect or the level left; conditions: route intraperitoneal
[11] = biological target: T1, Transient receptor potential cation channel subfamily V member 1; experiment: Activation of TRPV1 in HEK293 cells; format: cell-based
[12] = biological target: Transient receptor potential cation channel subfamily V member 1 (Rattus norvegicus) (UniProt O35433); experiment: Activation of TRPV1 in rat blood vessels; format: tissue-based; conditions: Blood vessel
Sequence of Transient receptor potential cation channel subfamily V member 1 (Rattus norvegicus) (O35433 whole entry): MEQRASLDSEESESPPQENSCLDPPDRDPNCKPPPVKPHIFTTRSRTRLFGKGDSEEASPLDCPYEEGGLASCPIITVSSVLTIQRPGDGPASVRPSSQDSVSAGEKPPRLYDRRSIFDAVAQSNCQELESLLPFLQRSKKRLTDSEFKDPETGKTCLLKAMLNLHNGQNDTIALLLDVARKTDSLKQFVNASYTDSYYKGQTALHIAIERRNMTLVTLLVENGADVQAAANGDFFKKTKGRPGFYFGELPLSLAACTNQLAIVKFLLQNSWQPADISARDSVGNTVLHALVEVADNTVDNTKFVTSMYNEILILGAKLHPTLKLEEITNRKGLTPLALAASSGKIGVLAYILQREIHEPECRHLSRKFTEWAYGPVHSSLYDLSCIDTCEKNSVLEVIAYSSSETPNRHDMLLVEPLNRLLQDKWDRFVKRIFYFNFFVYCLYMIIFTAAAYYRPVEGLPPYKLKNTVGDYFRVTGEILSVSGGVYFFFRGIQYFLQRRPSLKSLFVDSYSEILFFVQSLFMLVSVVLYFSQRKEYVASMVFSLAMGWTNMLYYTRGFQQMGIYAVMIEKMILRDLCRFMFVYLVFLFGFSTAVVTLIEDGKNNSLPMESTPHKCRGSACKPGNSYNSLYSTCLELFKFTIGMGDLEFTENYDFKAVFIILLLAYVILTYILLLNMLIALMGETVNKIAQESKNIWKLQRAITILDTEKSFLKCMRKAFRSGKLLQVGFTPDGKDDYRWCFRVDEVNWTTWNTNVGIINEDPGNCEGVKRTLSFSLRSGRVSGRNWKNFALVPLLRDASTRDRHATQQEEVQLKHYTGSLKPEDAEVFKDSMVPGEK

| Compound | EC50 [1] [µM] | Activity (Mus musculus [2]) [%] | Activity (Mus musculus [3]) [%] | Activity (Mus musculus [4]) [%] | Activity (Mus musculus [5]) [%] | Activity (Mus musculus [6]) [%] | Activity (Mus musculus [7]) [%] | Activity (Mus musculus [8]) [%] | Activity (Mus musculus [9]) [%] | Activity (Mus musculus [10]) [%] | Activity [11] | Activity [12] |
| --- | --- | --- | --- | --- | --- | --- | --- | --- | --- | --- | --- | --- |
| CCCCC/C=C\C/C=C\CCCCCCCC(=O)NCCO [LINOLEOYLETHANOLAMIDE] | 0.63 |  |  |  |  |  |  |  |  |  |  |  |
| CCCCCCCC/C=C\CCCCCCCC(=O)N(C)CCO |  | -3.67 | -3.28 | -1.44 | -0.3 | -0.5 | 0.03 | -0.48 | -0.48 | -0.61 |  |  |
| CCCCCCCCCCCCCCCC(=O)NCCO |  |  |  |  |  |  |  |  |  |  | inactive | inactive |
| CCCCCCCC/C=C\CCCCCCCC(=O)N[C@@H](C)CO |  | -3.58 | -2.56 | -3.66 | -1.63 | -0.5 | -1.57 | -2.24 | -2.24 | -1.8 |  |  |
